Test system: Peripheral White Blood Cells (WBC) and Hemoglobin (Hb)
Experiment: Peripheral white blood cell and hemoglobin counts in S180 cell-injected mice
Format: in vivo
Conditions: for WBC count: control 13.6±1.8; for Hb: control 134±15
Procedure: Effect of TPA on the Peripheral White Blood Cells (WBC) and Hemoglobin (Hb) Counts in S180 Cell-Injected Mice:
S180 cells were injected into mice. On the third day, the mice were given TPA i.p. at 50, 100 or 200 μg/kg/d for 7 days. On the second day after the treatment was completed, blood samples were taken from the tails of the treated mice for WBC and Hb analyses.

CCCCCCCCCCCCCC(=O)O[C@@H]1[C@@H](C)[C@@]2(O)[C@@H](C=C(CO)C[C@]3(O)C(=O)C(C)=C[C@@H]23)[C@@H]2C(C)(C)[C@]12OC(C)=O [TPA, Phorbol 12-Myristate-13-Acetate]
WBC count (i.p. 50 μg/kg/d for 7 d): 16.1±7.4 ×10^9 /L
Hb (i.p. 50 μg/kg/d for 7 d): 136 ± 11 g/L
WBC count (i.p. 100 μg/kg/d for 7 d): 18.7±3.0 ×10^9 /L
Hb (i.p. 100 μg/kg/d for 7 d): 149 ± 12 g/L
WBC count (i.p. 200 μg/kg/d for 7 d): 20.7±3.4 ×10^9 /L
Hb (i.p. 200 μg/kg/d for 7 d): 149 ± 10 g/L
effect on Hb levels (i.p. 50-200 μg/kg/d for 7 d): not greatly affected
effect on peripheral WBC counts (i.p. 50-200 μg/kg/d for 7 d): could increase the peripheral WBC counts in mice in a dose-dependent manner
